Measurements: US20210196817A1, “Compositions and Methods for Selectively Modulating Tregs” (Augusta University Research Institute, Inc., priority 2014, published 2021)

Legend:
[1] = test system: Tregs (CD4+Foxp3+); test: pAkt (S473) phosphorylation by flow cytometry in activated Tregs; type: cell-based, mouse; conditions: 10 nM, 100 nM and 1 μM, 72 hrs, anti-CD3/anti-CD28/IL-2 activated
Method: (§1) Negative selection of CD4 T-cells from splenocytes was performed using magnetic bead separation technique according to the manufacturer's recommendations R&D Systems (Minneapolis, Minn.). Tregs (CD4+Foxp3+) and Tconvs (CD4+Foxp3-) were sorted from enriched CD4 cells using FACS ARIA II cell sorter (BD Biosciences).
(§2) Sorted Tregs and Tconvs were labeled with VCT according to the manufacturer's protocol (Life Technologies, NY). Cells stimulated with and without inhibitors in the presence of 10 μg/mL plate-bound anti-CD3, 2.5 μg/mL soluble anti-CD28, and 100 IU/mL IL-2. After 3 days, cells were stained with live/dead cell stain (Life Technologies, NY), fixed, permeabelized and stained with anti-CD4-FITC and anti-Foxp3-AlexaFluor 647. For pAkt (S473) and pS6 analysis, the signal was amplified by using a biotin-conjugated donkey anti-rabbit antibody (BD Biosciences) and Streptavidin-PE. After staining, cells were acquired on LSRII SORP flow cytometer and analyzed using FlowJo software (Tree Star).
(§3) The phosphorylation status of Akt (S473) in activated Tregs and Tconvs was measured by flow cytometry after treatment with titrated concentrations of the individual inhibitors. The concentrations choice was based on previously published IC50 of the inhibitors (Table 1) and the in-vitro viability of T-cells. Concentrations that maintain more than 70% viability of the T-cells were used.

[2] = test system: Tconvs (CD4+Foxp3-); test: pAkt (S473) phosphorylation by flow cytometry in activated Tconvs; type: cell-based, mouse; conditions: 10 nM, 100 nM and 1 μM, 72 hrs, anti-CD3/anti-CD28/IL-2 activated
Method: as §1, §2, §3

[3] = test system: Tregs (CD4+Foxp3+); test: Continuous inhibition of PI3Kδ in vivo: Tregs, CD4 and CD8 cells, incl. tumor infiltration
[4] = test system: Tregs (CD4+Foxp3+); test: Violet Cell Trace proliferation assay, Tregs; type: cell-based, mouse; conditions: all tested concentrations, 3 days, anti-CD3/anti-CD28/IL-2
Method: (§4) Sorted Tregs and Tconvs were labeled with VCT according to the manufacturer's protocol (Life Technologies, NY). Cells stimulated with and without inhibitors in the presence of 10 μg/mL plate-bound anti-CD3, 2.5 μg/mL soluble anti-CD28, and 100 IU/mL IL-2. After 3 days, cells were stained with live/dead cell stain (Life Technologies, NY), fixed, permeabelized and stained with anti-CD4-FITC and anti-Foxp3-AlexaFluor 647. […] After staining, cells were acquired on LSRII SORP flow cytometer and analyzed using FlowJo software (Tree Star).

[5] = test system: Tconvs (CD4+Foxp3-); test: Violet Cell Trace proliferation assay, Tconvs; type: cell-based, mouse; conditions: all tested concentrations, 3 days, anti-CD3/anti-CD28/IL-2
Method: as §4

[6] = biological target: PI3Kα (Homo sapiens, UniProt P42336); conditions: previously published IC50; cited from earlier work
PI3Kα, sequence (P42336 whole entry, species assumed): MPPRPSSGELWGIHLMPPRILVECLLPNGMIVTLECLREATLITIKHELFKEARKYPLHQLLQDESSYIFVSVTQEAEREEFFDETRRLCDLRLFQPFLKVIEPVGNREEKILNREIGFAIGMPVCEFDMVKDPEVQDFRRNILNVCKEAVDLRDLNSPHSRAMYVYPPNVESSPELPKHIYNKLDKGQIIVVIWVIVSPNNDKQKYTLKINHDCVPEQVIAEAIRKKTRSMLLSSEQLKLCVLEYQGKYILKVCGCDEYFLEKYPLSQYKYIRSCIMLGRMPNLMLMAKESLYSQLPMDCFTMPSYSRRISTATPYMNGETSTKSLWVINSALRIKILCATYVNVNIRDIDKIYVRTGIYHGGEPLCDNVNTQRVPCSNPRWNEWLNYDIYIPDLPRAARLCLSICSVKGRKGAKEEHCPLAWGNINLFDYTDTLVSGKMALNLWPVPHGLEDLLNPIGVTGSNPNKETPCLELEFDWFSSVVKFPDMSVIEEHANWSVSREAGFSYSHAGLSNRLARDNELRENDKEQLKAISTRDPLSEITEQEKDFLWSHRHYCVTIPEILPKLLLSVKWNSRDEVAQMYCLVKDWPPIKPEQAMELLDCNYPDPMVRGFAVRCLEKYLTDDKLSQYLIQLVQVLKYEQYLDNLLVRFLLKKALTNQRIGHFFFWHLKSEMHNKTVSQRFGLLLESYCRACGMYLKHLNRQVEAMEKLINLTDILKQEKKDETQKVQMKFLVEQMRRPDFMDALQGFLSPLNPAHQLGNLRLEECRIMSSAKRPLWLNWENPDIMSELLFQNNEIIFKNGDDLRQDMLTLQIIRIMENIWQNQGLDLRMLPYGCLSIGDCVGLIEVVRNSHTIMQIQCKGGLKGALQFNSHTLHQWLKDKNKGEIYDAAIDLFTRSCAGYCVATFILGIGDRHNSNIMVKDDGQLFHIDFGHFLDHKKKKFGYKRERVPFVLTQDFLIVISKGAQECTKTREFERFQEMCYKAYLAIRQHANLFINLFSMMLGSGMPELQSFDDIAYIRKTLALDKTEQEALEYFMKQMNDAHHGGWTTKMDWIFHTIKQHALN

[7] = biological target: PI3Kδ (Homo sapiens, UniProt O00329); conditions: previously published IC50; cited from earlier work
PI3Kδ, sequence (O00329 whole entry): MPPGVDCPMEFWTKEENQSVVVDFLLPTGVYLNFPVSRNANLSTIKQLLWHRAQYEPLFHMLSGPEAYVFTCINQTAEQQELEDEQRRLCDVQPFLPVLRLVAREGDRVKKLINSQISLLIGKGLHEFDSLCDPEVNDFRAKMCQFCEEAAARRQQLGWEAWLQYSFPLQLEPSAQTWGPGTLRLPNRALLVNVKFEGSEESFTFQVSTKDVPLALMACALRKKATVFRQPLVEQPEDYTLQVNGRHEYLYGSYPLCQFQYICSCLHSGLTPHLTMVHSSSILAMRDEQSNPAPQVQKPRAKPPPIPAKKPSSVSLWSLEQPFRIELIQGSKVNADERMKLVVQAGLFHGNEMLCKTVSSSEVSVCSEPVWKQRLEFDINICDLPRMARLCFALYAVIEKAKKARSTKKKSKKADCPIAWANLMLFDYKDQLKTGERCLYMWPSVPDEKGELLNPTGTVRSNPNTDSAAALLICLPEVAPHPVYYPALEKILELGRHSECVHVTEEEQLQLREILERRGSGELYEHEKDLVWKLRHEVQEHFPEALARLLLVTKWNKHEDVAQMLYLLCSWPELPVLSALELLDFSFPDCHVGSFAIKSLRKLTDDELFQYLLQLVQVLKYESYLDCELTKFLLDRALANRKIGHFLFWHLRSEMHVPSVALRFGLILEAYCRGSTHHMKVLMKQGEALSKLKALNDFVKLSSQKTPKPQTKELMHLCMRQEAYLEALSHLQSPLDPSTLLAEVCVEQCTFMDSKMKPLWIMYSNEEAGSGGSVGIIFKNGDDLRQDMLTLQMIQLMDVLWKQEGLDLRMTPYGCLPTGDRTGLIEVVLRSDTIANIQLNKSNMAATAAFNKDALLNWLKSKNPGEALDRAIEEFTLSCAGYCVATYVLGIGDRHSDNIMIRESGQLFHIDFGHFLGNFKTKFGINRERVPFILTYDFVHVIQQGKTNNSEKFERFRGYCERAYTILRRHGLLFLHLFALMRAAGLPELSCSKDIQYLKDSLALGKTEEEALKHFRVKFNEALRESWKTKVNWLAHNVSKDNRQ
PI3Kδ, sequence (P27986 whole entry partner): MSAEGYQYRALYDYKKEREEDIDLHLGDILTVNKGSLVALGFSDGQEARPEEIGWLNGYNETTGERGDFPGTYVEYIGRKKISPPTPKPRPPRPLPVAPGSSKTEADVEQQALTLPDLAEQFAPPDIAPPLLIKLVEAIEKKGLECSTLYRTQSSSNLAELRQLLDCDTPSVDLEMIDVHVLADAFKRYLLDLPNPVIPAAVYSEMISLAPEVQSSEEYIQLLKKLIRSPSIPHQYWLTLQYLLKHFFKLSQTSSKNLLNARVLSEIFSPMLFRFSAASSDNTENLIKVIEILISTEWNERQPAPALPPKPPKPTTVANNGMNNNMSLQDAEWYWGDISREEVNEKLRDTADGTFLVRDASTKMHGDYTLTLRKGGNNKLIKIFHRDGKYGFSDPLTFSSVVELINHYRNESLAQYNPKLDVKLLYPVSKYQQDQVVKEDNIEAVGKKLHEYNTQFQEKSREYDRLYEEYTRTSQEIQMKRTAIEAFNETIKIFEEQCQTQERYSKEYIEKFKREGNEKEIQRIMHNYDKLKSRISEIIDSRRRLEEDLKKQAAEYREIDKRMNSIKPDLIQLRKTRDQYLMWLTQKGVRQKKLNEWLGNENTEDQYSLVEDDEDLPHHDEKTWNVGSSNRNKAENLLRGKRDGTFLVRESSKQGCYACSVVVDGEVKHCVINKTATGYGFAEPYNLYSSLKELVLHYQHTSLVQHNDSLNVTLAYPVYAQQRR

[8] = biological target: PI3Kγ (Homo sapiens, UniProt P48736); conditions: previously published IC50; cited from earlier work
PI3Kγ, sequence (P48736 whole entry, species assumed): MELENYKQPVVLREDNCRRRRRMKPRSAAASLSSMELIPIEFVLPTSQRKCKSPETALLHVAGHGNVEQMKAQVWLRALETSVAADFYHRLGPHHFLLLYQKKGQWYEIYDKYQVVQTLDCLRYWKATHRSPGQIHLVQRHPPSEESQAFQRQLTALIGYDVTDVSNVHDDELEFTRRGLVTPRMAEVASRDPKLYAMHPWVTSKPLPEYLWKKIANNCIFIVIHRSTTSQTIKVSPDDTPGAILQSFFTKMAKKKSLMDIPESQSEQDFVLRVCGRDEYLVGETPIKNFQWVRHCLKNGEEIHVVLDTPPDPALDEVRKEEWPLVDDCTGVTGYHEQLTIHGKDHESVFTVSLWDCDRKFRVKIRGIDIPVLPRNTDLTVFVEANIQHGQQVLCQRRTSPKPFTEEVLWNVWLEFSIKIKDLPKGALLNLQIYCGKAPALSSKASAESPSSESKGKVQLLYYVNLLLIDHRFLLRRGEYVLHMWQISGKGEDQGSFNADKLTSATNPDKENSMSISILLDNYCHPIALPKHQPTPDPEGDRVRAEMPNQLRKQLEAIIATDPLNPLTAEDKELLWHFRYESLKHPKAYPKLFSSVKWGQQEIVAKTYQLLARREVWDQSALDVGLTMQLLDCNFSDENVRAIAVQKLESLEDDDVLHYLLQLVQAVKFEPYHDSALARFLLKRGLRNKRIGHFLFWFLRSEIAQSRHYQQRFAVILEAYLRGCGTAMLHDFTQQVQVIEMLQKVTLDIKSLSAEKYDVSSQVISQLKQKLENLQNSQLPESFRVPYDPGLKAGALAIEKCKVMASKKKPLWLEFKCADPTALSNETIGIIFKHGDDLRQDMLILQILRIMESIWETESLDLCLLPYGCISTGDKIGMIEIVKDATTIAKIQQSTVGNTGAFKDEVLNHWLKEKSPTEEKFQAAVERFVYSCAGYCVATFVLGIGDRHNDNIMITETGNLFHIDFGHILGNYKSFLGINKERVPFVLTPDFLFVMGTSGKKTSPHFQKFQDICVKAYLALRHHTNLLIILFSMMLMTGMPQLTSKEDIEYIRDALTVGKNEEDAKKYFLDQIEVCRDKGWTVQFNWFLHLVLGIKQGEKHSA

| SMILES | inhibition of pAkt (S473) in Tregs [1] | inhibition of pAkt (S473) in Tconvs [2] | CD4 and CD8 cells in tumor (per 10^6 of CD45+CD3+) ([3]; 10 mg/kg, continuous treatment) | CD4 and CD8 cells under continuous treatment ([3]; day 26 vs day 12 baseline and vehicle) | inhibition of proliferation of Tregs [4] | inhibition of proliferation of Tconvs [5] | IC50 [6] [µM] | IC50 [7] [µM] | IC50 [8] [µM] |
| --- | --- | --- | --- | --- | --- | --- | --- | --- | --- |
| Cc1nc(NC(=O)N2CCC[C@H]2C(N)=O)sc1-c1csc(C(C)(C)C)n1 [A66] | No remarkable inhibition | No remarkable inhibition |  |  |  |  |  |  |  |
| CC[C@H](Nc1ncnc2[nH]cnc12)c1nc2cccc(F)c2c(=O)n1-c1ccccc1 [CAL-101] |  | no effect | no effect | no effect |  |  |  |  |  |
| Cc1cc(C(C)Nc2ccccc2)c2nc(N3CCOCC3)cc(=O)n2c1 (stereo not drawn) [TGX-221] | No remarkable inhibition | No remarkable inhibition |  |  | no inhibition | no inhibition | 5 | 0.1 | > 10 |
